Read-outs that look alike come from different tables or passages of the source. Square brackets hold non-standard residues; d marks the D form. Ends that are not written are not given here. Peptide text beside a SMILES is read from it.
What was measured:
[1] = tested on: Carbapenem resistant (CR)-Acinetobactor baumannii; assay: organism not typed
Protocol: (§1) The antibacterial activity was evaluated according to an antibacterial activity test method for measuring the minimum inhibitory concentration 50 (MIC50; the minimal concentration that kills 50% of bacteria).
(§2) More specifically, 100 μL of a medium was dispensed into each well of a 96-well plate, and in the first column, an antibiotic and a peptide in 200 μL of the medium were dispensed. 1/2 serial dilution was performed from columns 1 to 11 and five types of antibiotic-resistant bacteria (ESBL-resistant E. coli, carbapenem-resistant A. baumannii, carbapenem-resistant Klebsiella pneumoniae, carbapenem-resistant Pseudomonas aeruginosa, colistin-resistant Acinetobactor baumannii), which had been previously cultured, were diluted (OD600 nm value in dilution: approximately 0.0025) and dispensed into each well. The plate was incubated in a 37° C. incubator for 4 hours, and measured at OD600 nm.

ESBL (E. coli) = tested on: ESBL (E. coli)
Protocol: as §1, §2

CR-Klebsiella pneumoniae = tested on: CR-Klebsiella pneumoniae
Protocol: as §1, §2

[2] = tested on: Colistin resistant AB (Acinetobactor baumannii)
Protocol: as §1, §2

[3] = tested on: Salmonela typhimurium (ATCC 53648); assay: microbe, parasite or virus in culture; conditions: for MIC: Salmonella enterica
Protocol: (§3) To compare the antibacterial activity between the four commercially available antibiotics (ampicillin, gentamicin, levofloxacin and imipenem) and the allD FP13-NH2 (AcOH) peptide, an antibacterial activity test was performed to measure the minimum inhibitory concentrations (MIC50 and MIC80) for gram-negative and gram-positive standard strains (Escherichia coli DH5α, Escherichia coli K1, Acinetobacter baumannii, Pseudomonas aeruginosa, Salmonella enteritidis, Salmonella typhimurium, and Klebsiella pneumoniae).
(§4) More specifically, 100 μL of a medium was dispensed into each well of a 96-well plate, and in the first column, an antibiotic and a peptide in 200 μL of the medium were dispensed. 1/2 serial dilution was performed from columns 1 to 11, and gram-negative and gram-positive bacteria which had been previously cultured were diluted (OD600 nm value in dilution: approximately 0.0025) and dispensed into each well. The plate was incubated in a 37° C. incubator for 4 hours, and measured at OD600 nm.

Escherichia coli K1 = assay: microbe, parasite or virus in culture; conditions: for MIC: Escherichia coli
Protocol: as §3, §4

[4] = tested on: Escherichia coli DH5α (ATCC PTA-4750); assay: microbe, parasite or virus in culture; conditions: for MIC: Escherichia coli, 4 h
Protocol: as §3, §4

[5] = tested on: Salmonela enteritidis (ATCC 13076); assay: microbe, parasite or virus in culture; conditions: for MIC: Salmonella enterica
Protocol: as §3, §4

[6] = tested on: Acinetobacter baumannii (ATCC 19606); assay: microbe, parasite or virus in culture; conditions: for MIC: Acinetobacter baumannii
Protocol: as §3, §4

[7] = tested on: Klebiella pneumoniae (ATCC 13883); assay: microbe, parasite or virus in culture; conditions: for MIC (μg/ml) 50% / MIC (μg/ml) 80%: Klebsiella pneumoniae ATCC 13883; for MIC (μg/ml) 50%: 50% growth inhibition; for MIC (μg/ml) 80%: 80% growth inhibition; for MIC: Klebsiella pneumoniae
Protocol: as §3, §4

[8] = tested on: Pseudomanas aeruginosa PAO1 (ATCC 47085D-5); assay: microbe, parasite or virus in culture; conditions: for MIC (μg/ml) 50% / MIC (μg/ml) 80%: Pseudomonas aeruginosa PAO1; for MIC (μg/ml) 50%: 50% growth inhibition; for MIC (μg/ml) 80%: 80% growth inhibition; for MIC: Pseudomonas aeruginosa
Protocol: as §3, §4

[9] = LPS binding affinity by Isothermal Titration Calorimeter (ITC); set-up: species or system E. coli K1; conditions: for Kd: peptide binding to LPS, read-out: Kd (calculated by ITC); for LPS binding affinity (in words): compared with FP1 (wild type, WT)
Description: FPT (ADK 44-54) is denoted by wild type (WT), and peptides in which a point mutation occurred at various sites in WT were manufactured (FP3, FP5, FP6, and FP9). To increase the interaction with LPS in a residue sequence of FP3, peptides were designed based on FP3- and LPS-binding models (FP12-NH2 and FP13-NH2), and peptides were designed by additionally introducing a non-natural amino acid and an amino acid isomer (allomeric D-type amino acid) (allD FP12-NH2, allD FP13-NH2, allD FP-13-9a, allD FP-13-9w, allD FP-13-9k, and allD FP13-NH2 (AcOH)). In addition, an N-terminus PEGylated peptide (PEG-alld FP13-NH2 (AcOH)) was additionally designed, synthesized, and provided by ANYGEN, Co. Ltd. The binding affinity between each of the provided peptides and lipopolysaccharide (LPS) was confirmed through measuring the binding affinity (Kd) using Isothermal Titration Calorimeter (ITC).
Specifically, a method of analyzing binding affinity (Kd) between a peptide and LPS is as follows.
Measurement was carried out using a Malvern MicroCal PEAQ-ITC cell instrument, and the following pretreatment was carried out to confirm interaction with LPS. The amount and morphology of a sample cell are 300 μL and coin-shaped, fixed-in-place, respectively; a syringe rotation rate was 1,200 rpm; and a temperature was 30° C., 35° C. or 25° C.
Before the experiment, LPS and the peptide were previously diluted with PBS, thereby preparing 2 mM LPS and 0.2 mM peptide. 300 μL of the peptide was added into cells in the ITC instrument, which had been washed, and 40 μL of LPS was put into a syringe. After measurement conditions for ITC (temperature, number of injections) were set, the syringe was inserted into the cell, and ITC measurement was started. When the measurement was completed, analysis is performed, and the Kd values of LPS and the peptide were calculated.

[10] = colistin resistant A. baumannii
[11] = ATCC19606, read-out: MIC (μg/ml) 50%
[12] = ATCC19606, read-out: MIC (μg/ml) 80%

## CC1(C)S[C@@H]2[C@H](NC(=O)[C@H](N)c3ccccc3)C(=O)N2[C@H]1C(=O)O [Ampicillin, ampicillin]
[1]; read-out: MIC50, Carbapenem resistant (CR)-Acinetobactor baumannii
  MIC50: < 16 µg/mL
ESBL (E. coli); ESBL E. coli
  MIC50, ESBL (E. coli): No effect
CR-Klebsiella pneumoniae; CR-K. pneumoniae
  MIC50, CR-Klebsiella pneumoniae: No effect
[2]; [10]
  MIC50, Colistin resistant AB: No effect
[3]; read-out: MIC (μg/ml) 50%
  MIC: < 1 µg/mL
[3]; read-out: MIC (μg/ml) 80%
  MIC: < 2 µg/mL
Escherichia coli K1; K1, read-out: MIC (μg/ml) 50%
  MIC: < 4 µg/mL
Escherichia coli K1; K1, read-out: MIC (μg/ml) 80%
  MIC: < 8 µg/mL
[4]; read-out: MIC (μg/ml) 50%
  MIC: < 2 µg/mL
[4]; read-out: MIC (μg/ml) 80%
  MIC: < 4 µg/mL
[5]; read-out: MIC (μg/ml) 50%
  MIC: < 4 µg/mL
[5]; read-out: MIC (μg/ml) 80%
  MIC: < 8 µg/mL
[6]; [11]
  MIC: < 32 µg/mL
[6]; [12]
  MIC: < 64 µg/mL
[7]
  MIC (μg/ml) 50%: no effect
  MIC (μg/ml) 80%: no effect
[8]
  MIC (μg/ml) 50%: no effect
  MIC (μg/ml) 80%: no effect

## C[C@H]1COc2c(N3CCN(C)CC3)c(F)cc3c(=O)c(C(=O)O)cn1c23 [Levofloxacin, levofloxacin]
[3]; read-out: MIC (μg/ml) 50%
  MIC: < 0.5 µg/mL
[3]; read-out: MIC (μg/ml) 80%
  MIC: < 1 µg/mL
Escherichia coli K1; K1, read-out: MIC (μg/ml) 50%
  MIC: < 0.5 µg/mL
Escherichia coli K1; K1, read-out: MIC (μg/ml) 80%
  MIC: < 1 µg/mL
[4]; read-out: MIC (μg/ml) 50%
  MIC: < 0.5 µg/mL
[4]; read-out: MIC (μg/ml) 80%
  MIC: < 1 µg/mL
[5]; read-out: MIC (μg/ml) 50%
  MIC: < 0.5 µg/mL
[5]; read-out: MIC (μg/ml) 80%
  MIC: < 1 µg/mL
[6]; [11]
  MIC: < 0.5 µg/mL
[6]; [12]
  MIC: < 1 µg/mL
[7]; ATCC13883, read-out: MIC (μg/ml) 50%
  MIC: < 0.5 µg/mL
[7]; ATCC13883, read-out: MIC (μg/ml) 80%
  MIC: < 1 µg/mL
[8]; PAO1, read-out: MIC (μg/ml) 50%
  MIC: < 0.5 µg/mL
[8]; PAO1, read-out: MIC (μg/ml) 80%
  MIC: < 1 µg/mL

## CC(C)C[C@@H](NC(=O)[C@H](N)CCCNC(=N)N)C(=O)N[C@H](CCCNC(=N)N)C(=O)N[C@@H](C(=O)N[C@H](CCCCN)C(=O)N[C@H](CC(C)C)C(=O)N[C@H](CCCNC(=N)N)C(=O)N[C@H](CCCNC(=N)N)C(=O)N[C@H](Cc1c[nH]c2ccccc12)C(=O)N[C@H](CC(C)C)C(=O)N[C@H](CCCNC(=N)N)C(N)=O)C(C)C [allD FP21-NH2] (H-[dR][dL][dR][dV][dK][dL][dR][dR][dW][dL][dR]-NH2; N-terminus assumed)
[1]
  MIC50, Carbapenem resistant (CR)-Acinetobactor baumannii: <1 µg/mL
ESBL (E. coli); ESBL
  MIC50, ESBL (E. coli): <0.5 µg/mL
CR-Klebsiella pneumoniae; CR-
  MIC50, CR-Klebsiella pneumoniae: <4 µg/mL
[2]
  MIC50, Colistin resistant AB: <4 µg/mL

## KLGVEAKRYLD [FP1(WT), reference compound]
[9]
  Kd: 238 µM

## KLGVEAKRYLR [FP3]
[9]
  LPS binding affinity (in words): strong LPS binding affinity
  Kd: 332 µM

## KLGVEALRYLD [FP9]
[9]
  LPS binding affinity (in words): strong LPS binding affinity
  Kd: 326 µM

## KLRVKLRRWLR [allD FP-13-9w-NH2]
[9]
  LPS binding affinity (in words): strong LPS binding affinity
  Kd: 17.4 µM

## KLRVKLRRYLR [FP13]
[1]
  MIC50, Carbapenem resistant (CR)-Acinetobactor baumannii: <16 µg/mL
ESBL (E. coli); ESBL
  MIC50, ESBL (E. coli): <2 µg/mL
CR-Klebsiella pneumoniae; CR-
  MIC50, CR-Klebsiella pneumoniae: <62 µg/mL
[2]
  MIC50, Colistin resistant AB: <62 µg/mL

## LRLGVEAKRYLR [FP5]
[9]
  LPS binding affinity (in words): strong LPS binding affinity
  Kd: 854 µM

## LRLGVELKRYLR [FP6]
[9]
  LPS binding affinity (in words): strong LPS binding affinity
  Kd: 11.1 µM

## PEG-KLRVKLRRYLR-NH2 [PEG-alld FP13-NH2 (AcOH)]
[9]
  Kd: 17.5 µM

## RLRVKLRRYLR [FP12]
[1]
  MIC50, Carbapenem resistant (CR)-Acinetobactor baumannii: <16 µg/mL
ESBL (E. coli); ESBL
  MIC50, ESBL (E. coli): <2 µg/mL
CR-Klebsiella pneumoniae; CR-
  MIC50, CR-Klebsiella pneumoniae: <62 µg/mL
[2]
  MIC50, Colistin resistant AB: <125 µg/mL

## colistin [reference compound]
[1]; CR-A. baumannii
  MIC50, Carbapenem resistant (CR)-Acinetobactor baumannii: <1 µg/mL
ESBL (E. coli); ESBL E. coli
  MIC50, ESBL (E. coli): <0.5 µg/mL
CR-Klebsiella pneumoniae; CR-K. pneumoniae
  MIC50, CR-Klebsiella pneumoniae: <125 µg/mL
[2]; [10]
  MIC50, Colistin resistant AB: No effect

## gentamicin
[3]; Salmonella typhimurium ATCC 53648, 50% growth inhibition
  MIC (μg/ml) 50%: <0.5 µg/mL
[3]; Salmonella typhimurium ATCC 53648, 80% growth inhibition
  MIC (μg/ml) 80%: <1.0 µg/mL
Escherichia coli K1; Escherichia coli K1, 50% growth inhibition
  MIC (μg/ml) 50%: <0.5 µg/mL
Escherichia coli K1; Escherichia coli K1, 80% growth inhibition
  MIC (μg/ml) 80%: <1.0 µg/mL
[4]; Escherichia coli DH5α, 50% growth inhibition, 4 hours
  MIC (μg/ml) 50%: <0.5 µg/mL
[4]; Escherichia coli DH5α, 80% growth inhibition, 4 hours
  MIC (μg/ml) 80%: <1.0 µg/mL
[5]; Salmonella enteritidis ATCC 13076, 50% growth inhibition
  MIC (μg/ml) 50%: <0.5 µg/mL
[5]; Salmonella enteritidis ATCC 13076, 80% growth inhibition
  MIC (μg/ml) 80%: <1.0 µg/mL
[6]; Acinetobacter baumannii ATCC 19606, 50% growth inhibition
  MIC (μg/ml) 50%: <1.0 µg/mL
[6]; Acinetobacter baumannii ATCC 19606, 80% growth inhibition
  MIC (μg/ml) 80%: <2.0 µg/mL
[7]
  MIC (μg/ml) 50%: <0.5 µg/mL
  MIC (μg/ml) 80%: <1.0 µg/mL
[8]
  MIC (μg/ml) 50%: <0.5 µg/mL
  MIC (μg/ml) 80%: <1.0 µg/mL

## klrvklrralr-NH2 [allD FP-13-9a-NH2]
[9]
  LPS binding affinity (in words): strong LPS binding affinity
  Kd: 9.54 µM

## klrvklrrklr-NH2 [allD FP-13-9k-NH2]
[9]
  LPS binding affinity (in words): strong LPS binding affinity
  Kd: 1.99 µM

Source: US12371453B2, “Polypeptide having antibacterial activity, composition for preventing or treating sepsis comprising same, and antibacterial composition” (priority 2019, dated 2025)
